# Earlier results, collected in US20250064735A1, “CONTAINER SYSTEM AND PHARMACEUTICAL FOAM COMPOSITION COMPRISING BETAMETHASONE” (Glenmark Pharmaceuticals Limited, priority 2018, published 2025).
row,SMILES,pH at which the substance is stable
1,"CC1C[C@H]2[C@@H]3CCC4=CC(=O)C=C[C@]4(C)[C@@]3(F)C(O)C[C@]2(C)[C@@]1(O)C(=O)CO (some centres unmarked) [Betamethasone, 9-fluoro-11,17,21-trihydroxy-16-methylpregna-1,4-diene-3,20-dione]",4-6
2,C=C1/C(=C\C=C2/CCC[C@]3(C)[C@@H]([C@H](C)/C=C/[C@@H](O)C4CC4)CC[C@@H]23)C[C@@H](O)C[C@@H]1O [Calcipotriene],greater than 8
